Data from patent US11339163B2, “BRaf inhibitors and use thereof for treatment of cutaneous reactions” (Lutris Pharma Ltd., priority 2017, dated 2022).

How the values were obtained:
Assay in all cases: KinaseProfiler kinase selectivity assay
Format in all cases: biochemical
ALK(h) = ALK(h) (Homo sapiens, UniProt Q9UM73)
Experimental: (§1) All compounds were prepared to 50× final assay concentration in 100% DMSO. This working stock of the compound was added to the assay well as the first component in the reaction, followed by the remaining components. In the standard KinaseProfiler™ service, there is no pre-incubation step between the compound and the kinase prior to initiation of the reaction. The positive control wells contain all components of the reaction, except the compound of interest; however, DMSO (at a final concentration of 2%) is included in these wells to control for solvent effects. The blank wells contain all components of the reaction, with a reference inhibitor replacing the compound of interest. This abolishes kinase activity and establishes the base-line (0% kinase activity remaining).

AMPKα1(h) = AMPKα1(h) (Homo sapiens, UniProt Q13131)
Experimental: as §1

ASK1(h) = ASK1(h) (Homo sapiens, UniProt Q99683)
Chain of ASK1(h) (Q99683 whole entry): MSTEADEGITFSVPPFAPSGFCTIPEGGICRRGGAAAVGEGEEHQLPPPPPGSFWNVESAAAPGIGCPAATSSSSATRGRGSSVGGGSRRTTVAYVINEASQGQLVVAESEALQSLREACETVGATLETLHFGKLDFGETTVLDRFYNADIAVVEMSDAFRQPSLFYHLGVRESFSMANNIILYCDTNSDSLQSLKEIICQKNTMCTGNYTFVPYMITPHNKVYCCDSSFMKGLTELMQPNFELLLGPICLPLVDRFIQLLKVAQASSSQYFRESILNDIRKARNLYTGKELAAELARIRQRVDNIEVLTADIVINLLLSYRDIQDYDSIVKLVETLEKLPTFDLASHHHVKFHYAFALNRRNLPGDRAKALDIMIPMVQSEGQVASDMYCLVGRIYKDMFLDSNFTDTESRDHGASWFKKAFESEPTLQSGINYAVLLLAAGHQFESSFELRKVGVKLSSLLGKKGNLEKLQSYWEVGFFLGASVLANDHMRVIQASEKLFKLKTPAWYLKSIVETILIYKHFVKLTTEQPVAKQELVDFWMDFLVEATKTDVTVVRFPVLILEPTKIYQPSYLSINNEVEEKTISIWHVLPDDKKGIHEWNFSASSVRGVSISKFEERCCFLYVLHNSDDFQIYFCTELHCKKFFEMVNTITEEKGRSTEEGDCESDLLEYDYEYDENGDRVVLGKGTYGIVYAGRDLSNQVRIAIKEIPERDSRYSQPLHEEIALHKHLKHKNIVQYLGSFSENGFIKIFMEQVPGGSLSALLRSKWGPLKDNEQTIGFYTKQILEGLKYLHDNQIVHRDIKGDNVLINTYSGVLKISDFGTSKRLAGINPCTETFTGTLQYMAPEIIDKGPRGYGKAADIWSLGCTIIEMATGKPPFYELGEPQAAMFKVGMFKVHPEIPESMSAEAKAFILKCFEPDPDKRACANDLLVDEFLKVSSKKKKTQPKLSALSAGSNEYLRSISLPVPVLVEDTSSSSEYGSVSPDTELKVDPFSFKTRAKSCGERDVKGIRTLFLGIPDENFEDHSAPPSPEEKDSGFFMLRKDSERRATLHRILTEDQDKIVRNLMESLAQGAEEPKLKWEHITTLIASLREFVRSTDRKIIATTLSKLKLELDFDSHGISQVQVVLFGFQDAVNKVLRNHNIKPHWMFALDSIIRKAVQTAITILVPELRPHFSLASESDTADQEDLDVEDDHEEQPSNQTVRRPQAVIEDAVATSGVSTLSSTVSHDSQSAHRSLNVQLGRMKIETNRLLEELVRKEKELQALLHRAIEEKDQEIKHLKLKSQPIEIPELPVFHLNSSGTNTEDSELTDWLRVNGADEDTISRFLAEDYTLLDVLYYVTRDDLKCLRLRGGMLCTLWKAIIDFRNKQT
Experimental: as §1

Abl(h) = Abl(h) (Homo sapiens, UniProt P00519)
Experimental: as §1

Aurora-A(h) = Aurora-A(h) (Homo sapiens, UniProt O14965)
Experimental: as §1

CDK2/cyclinA(h) = CDK2/cyclinA(h) (Homo sapiens, UniProt P24941)
Experimental: as §1

CDK7/cyclinH/MAT1(h) = CDK7/cyclinH/MAT1(h) (Homo sapiens, UniProt P50613)
Experimental: as §1

CDK9/cyclin T1(h) = CDK9/cyclin T1(h) (Homo sapiens, UniProt P50750)
Experimental: as §1

EphA5(h) = EphA5(h) (Homo sapiens, UniProt P54756)
Experimental: as §1

IGF-1R(h) = IGF-1R(h) (Homo sapiens, UniProt P08069)
Experimental: as §1

IKKα(h) = IKKα(h) (Homo sapiens, UniProt O15111)
Experimental: as §1

LOK(h) = LOK(h) (Homo sapiens, UniProt O94804)
Experimental: as §1

MEK1(h) = MEK1(h) (Homo sapiens, UniProt Q02750)
Experimental: as §1

MKK7β(h) = MKK7β(h) (Homo sapiens, UniProt O14733)
Experimental: as §1

MLK1(h) = MLK1(h) (Homo sapiens, UniProt P80192)
Experimental: as §1

MSK2(h) = MSK2(h) (Homo sapiens, UniProt O75676)
Experimental: as §1

MST1(h) = MST1(h) (Homo sapiens, UniProt Q13043)
Experimental: as §1

NEK2(h) = NEK2(h) (Homo sapiens, UniProt P51955)
Chain of NEK2(h) (P51955 whole entry): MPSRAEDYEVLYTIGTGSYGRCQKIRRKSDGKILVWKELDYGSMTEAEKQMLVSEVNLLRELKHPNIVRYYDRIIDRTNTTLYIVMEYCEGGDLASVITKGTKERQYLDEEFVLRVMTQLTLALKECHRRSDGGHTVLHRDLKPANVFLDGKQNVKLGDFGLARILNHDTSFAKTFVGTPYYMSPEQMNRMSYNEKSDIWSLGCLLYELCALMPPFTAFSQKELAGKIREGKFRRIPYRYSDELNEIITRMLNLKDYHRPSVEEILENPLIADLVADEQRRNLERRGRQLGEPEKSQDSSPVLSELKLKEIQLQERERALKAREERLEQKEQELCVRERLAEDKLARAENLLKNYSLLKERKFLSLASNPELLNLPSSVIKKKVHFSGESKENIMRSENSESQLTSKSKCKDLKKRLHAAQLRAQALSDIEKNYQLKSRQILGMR
Experimental: as §1

PDGFRβ(h) = PDGFRβ(h) (Homo sapiens, UniProt P09619)
Experimental: as §1

[1] = molecular target: PI3 Kinase (p110α/p85α)(h) (Homo sapiens, UniProt P42336)
Chain of PI3 Kinase (p110α/p85α)(h) (P42336 whole entry): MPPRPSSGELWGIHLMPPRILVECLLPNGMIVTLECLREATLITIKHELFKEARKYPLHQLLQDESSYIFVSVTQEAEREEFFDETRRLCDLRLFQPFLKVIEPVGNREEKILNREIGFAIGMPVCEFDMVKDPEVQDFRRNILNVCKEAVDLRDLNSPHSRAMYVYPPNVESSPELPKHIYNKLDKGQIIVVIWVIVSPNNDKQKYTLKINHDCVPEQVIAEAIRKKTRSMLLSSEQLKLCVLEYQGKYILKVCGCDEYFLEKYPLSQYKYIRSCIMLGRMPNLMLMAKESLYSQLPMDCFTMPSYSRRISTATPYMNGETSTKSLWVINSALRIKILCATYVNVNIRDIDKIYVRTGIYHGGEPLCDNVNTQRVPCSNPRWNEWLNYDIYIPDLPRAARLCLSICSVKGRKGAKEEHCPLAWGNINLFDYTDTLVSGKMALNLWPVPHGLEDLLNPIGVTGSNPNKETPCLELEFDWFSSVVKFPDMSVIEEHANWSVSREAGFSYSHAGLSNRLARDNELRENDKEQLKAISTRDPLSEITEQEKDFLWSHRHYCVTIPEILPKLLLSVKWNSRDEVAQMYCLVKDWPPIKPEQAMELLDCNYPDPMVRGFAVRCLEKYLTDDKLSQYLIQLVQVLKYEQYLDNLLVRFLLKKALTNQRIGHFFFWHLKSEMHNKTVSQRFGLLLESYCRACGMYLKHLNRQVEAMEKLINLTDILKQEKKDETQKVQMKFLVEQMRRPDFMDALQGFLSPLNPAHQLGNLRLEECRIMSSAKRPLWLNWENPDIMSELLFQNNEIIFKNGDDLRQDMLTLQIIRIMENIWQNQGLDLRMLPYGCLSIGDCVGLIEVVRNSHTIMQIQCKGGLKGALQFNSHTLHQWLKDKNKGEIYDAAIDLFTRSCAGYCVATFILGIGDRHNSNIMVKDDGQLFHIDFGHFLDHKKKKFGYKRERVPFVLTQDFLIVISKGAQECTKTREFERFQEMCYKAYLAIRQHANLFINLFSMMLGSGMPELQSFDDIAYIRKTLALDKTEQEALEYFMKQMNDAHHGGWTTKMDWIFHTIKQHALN
Chain of PI3 Kinase (p110α/p85α)(h) (P27986 whole entry partner): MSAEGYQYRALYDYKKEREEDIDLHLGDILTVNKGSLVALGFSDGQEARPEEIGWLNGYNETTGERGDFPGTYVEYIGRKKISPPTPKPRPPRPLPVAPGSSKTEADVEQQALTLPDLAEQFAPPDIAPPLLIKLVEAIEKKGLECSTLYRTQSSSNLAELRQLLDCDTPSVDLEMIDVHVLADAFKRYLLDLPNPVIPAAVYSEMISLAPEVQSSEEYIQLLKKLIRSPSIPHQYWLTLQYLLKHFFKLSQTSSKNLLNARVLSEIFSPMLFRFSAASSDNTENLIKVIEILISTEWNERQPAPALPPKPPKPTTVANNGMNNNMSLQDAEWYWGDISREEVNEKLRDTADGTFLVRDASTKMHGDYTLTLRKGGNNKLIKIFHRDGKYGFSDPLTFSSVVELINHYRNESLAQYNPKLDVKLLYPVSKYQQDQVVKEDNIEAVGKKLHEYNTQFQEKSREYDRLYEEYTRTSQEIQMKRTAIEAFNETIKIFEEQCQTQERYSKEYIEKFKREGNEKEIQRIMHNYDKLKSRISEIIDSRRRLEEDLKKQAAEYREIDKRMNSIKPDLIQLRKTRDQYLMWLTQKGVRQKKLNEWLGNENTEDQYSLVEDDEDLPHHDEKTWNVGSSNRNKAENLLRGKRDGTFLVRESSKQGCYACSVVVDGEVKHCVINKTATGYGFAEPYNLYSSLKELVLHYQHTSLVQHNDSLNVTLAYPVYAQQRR
Experimental: as §1

[2] = molecular target: PI3 Kinase (p110δ/p85α)(h) (Homo sapiens, UniProt O00329)
Experimental: as §1

PI3 Kinase (p120γ)(h) = PI3 Kinase (p120γ)(h) (Homo sapiens, UniProt P48736)
Experimental: as §1

PKA(h) = PKA(h) (Homo sapiens, UniProt P17612)
Experimental: as §1

PKBα(h) = PKBα(h) (Homo sapiens, UniProt P31749)
Experimental: as §1

PRAK(h) = PRAK(h) (Homo sapiens, UniProt Q8IW41)
Experimental: as §1

ROCK-I(h) = ROCK-I(h) (Homo sapiens, UniProt Q13464)
Experimental: as §1

SAPK2a(h) = SAPK2a(h) (Homo sapiens, UniProt Q16539)
Experimental: as §1

TAK1(h) = TAK1(h) (Homo sapiens, UniProt O43318)
Experimental: as §1

eEF-2K(h) = eEF-2K(h) (Homo sapiens, UniProt O00418)
Chain of eEF-2K(h) (O00418 whole entry): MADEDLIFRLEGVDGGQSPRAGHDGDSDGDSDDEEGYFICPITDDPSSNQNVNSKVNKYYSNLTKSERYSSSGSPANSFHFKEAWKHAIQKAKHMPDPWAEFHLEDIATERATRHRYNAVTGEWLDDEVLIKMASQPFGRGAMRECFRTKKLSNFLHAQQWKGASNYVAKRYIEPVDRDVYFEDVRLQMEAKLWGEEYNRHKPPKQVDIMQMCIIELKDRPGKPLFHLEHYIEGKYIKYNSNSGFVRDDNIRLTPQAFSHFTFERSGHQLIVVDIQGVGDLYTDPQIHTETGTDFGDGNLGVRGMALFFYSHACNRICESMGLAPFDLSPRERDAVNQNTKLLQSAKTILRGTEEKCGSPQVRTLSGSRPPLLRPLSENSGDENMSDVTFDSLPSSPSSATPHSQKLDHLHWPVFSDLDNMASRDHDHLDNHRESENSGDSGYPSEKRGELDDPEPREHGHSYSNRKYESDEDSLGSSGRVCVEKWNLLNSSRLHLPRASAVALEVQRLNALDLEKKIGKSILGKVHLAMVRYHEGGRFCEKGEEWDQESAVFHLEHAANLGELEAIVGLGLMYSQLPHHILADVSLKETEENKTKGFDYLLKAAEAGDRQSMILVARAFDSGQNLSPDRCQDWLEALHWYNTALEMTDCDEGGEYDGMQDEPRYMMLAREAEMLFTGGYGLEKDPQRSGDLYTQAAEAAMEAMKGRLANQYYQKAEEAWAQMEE
Experimental: as §1

mTOR(h) = mTOR(h) (Homo sapiens, UniProt P42345)
Experimental: as §1

p70S6K(h) = p70S6K(h) (Homo sapiens, UniProt P23443)
Chain of p70S6K(h) (P23443 whole entry): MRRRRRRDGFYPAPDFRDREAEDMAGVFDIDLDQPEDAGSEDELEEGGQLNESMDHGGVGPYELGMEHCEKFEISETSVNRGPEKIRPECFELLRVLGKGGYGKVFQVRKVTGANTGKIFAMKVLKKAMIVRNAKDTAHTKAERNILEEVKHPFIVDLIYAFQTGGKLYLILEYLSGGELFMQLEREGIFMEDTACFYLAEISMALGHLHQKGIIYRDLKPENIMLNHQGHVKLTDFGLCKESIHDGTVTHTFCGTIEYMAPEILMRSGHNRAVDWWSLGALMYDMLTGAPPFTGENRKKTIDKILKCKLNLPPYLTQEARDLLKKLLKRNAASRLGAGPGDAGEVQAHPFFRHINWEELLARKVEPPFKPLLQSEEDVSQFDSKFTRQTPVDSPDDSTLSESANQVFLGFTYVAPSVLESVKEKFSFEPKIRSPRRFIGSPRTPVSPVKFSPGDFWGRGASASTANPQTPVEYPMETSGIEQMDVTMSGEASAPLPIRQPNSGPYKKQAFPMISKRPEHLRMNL
Experimental: as §1

## Cc1ccc2c(Nc3cccc(OC(F)(F)F)c3)nccc2c1Nc1ncccc1-c1ncnc2[nH]cnc12 [LUT014]
ALK(h); Lut014 @ 0.01 μM
  remaining activity at 0.01 µM: 150%
ALK(h); Lut014 @ 1 μM
  remaining activity at 1 µM: 83%
AMPKα1(h); Lut014 @ 0.01 μM
  remaining activity at 0.01 µM: 106%
AMPKα1(h); Lut014 @ 1 μM
  remaining activity at 1 µM: 114%
ASK1(h); Lut014 @ 0.01 μM
  remaining activity at 0.01 µM: 109%
ASK1(h); Lut014 @ 1 μM
  remaining activity at 1 µM: 99%
Abl(h); Lut014 @ 0.01 μM
  remaining activity at 0.01 µM: 92%
Abl(h); Lut014 @ 1 μM
  remaining activity at 1 µM: 25%
Aurora-A(h); Lut014 @ 0.01 μM
  remaining activity at 0.01 µM: 95%
Aurora-A(h); Lut014 @ 1 μM
  remaining activity at 1 µM: 97%
CDK2/cyclinA(h); Lut014 @ 0.01 μM
  remaining activity at 0.01 µM: 106%
CDK2/cyclinA(h); Lut014 @ 1 μM
  remaining activity at 1 µM: 95%
CDK7/cyclinH/MAT1(h); Lut014 @ 0.01 μM
  remaining activity at 0.01 µM: 105%
CDK7/cyclinH/MAT1(h); Lut014 @ 1 μM
  remaining activity at 1 µM: 109%
CDK9/cyclin T1(h); Lut014 @ 0.01 μM
  remaining activity at 0.01 µM: 110%
CDK9/cyclin T1(h); Lut014 @ 1 μM
  remaining activity at 1 µM: 98%
EphA5(h); Lut014 @ 0.01 μM
  remaining activity at 0.01 µM: 99%
EphA5(h); Lut014 @ 1 μM
  remaining activity at 1 µM: 56%
IGF-1R(h); Lut014 @ 0.01 μM
  remaining activity at 0.01 µM: 88%
IGF-1R(h); Lut014 @ 1 μM
  remaining activity at 1 µM: 86%
IKKα(h); Lut014 @ 0.01 μM
  remaining activity at 0.01 µM: 105%
IKKα(h); Lut014 @ 1 μM
  remaining activity at 1 µM: 105%
LOK(h); Lut014 @ 0.01 μM
  remaining activity at 0.01 µM: 98%
LOK(h); Lut014 @ 1 μM
  remaining activity at 1 µM: 83%
MEK1(h); Lut014 @ 0.01 μM
  remaining activity at 0.01 µM: 98%
MEK1(h); Lut014 @ 1 μM
  remaining activity at 1 µM: 105%
MKK7β(h); Lut014 @ 0.01 μM
  remaining activity at 0.01 µM: 100%
MKK7β(h); Lut014 @ 1 μM
  remaining activity at 1 µM: 103%
MLK1(h); Lut014 @ 0.01 μM
  remaining activity at 0.01 µM: 109%
MLK1(h); Lut014 @ 1 μM
  remaining activity at 1 µM: 112%
MSK2(h); Lut014 @ 0.01 μM
  remaining activity at 0.01 µM: 92%
MSK2(h); Lut014 @ 1 μM
  remaining activity at 1 µM: 96%
MST1(h); Lut014 @ 0.01 μM
  remaining activity at 0.01 µM: 98%
MST1(h); Lut014 @ 1 μM
  remaining activity at 1 µM: 112%
NEK2(h); Lut014 @ 0.01 μM
  remaining activity at 0.01 µM: 98%
NEK2(h); Lut014 @ 1 μM
  remaining activity at 1 µM: 125%
PDGFRβ(h); Lut014 @ 0.01 μM
  remaining activity at 0.01 µM: 98%
PDGFRβ(h); Lut014 @ 1 μM
  remaining activity at 1 µM: 103%
[1]; Lut014 @ 0.01 μM
  remaining activity at 0.01 µM: 92%
[1]; Lut014 @ 1 μM
  remaining activity at 1 µM: 84%
[2]; Lut014 @ 0.01 μM
  remaining activity at 0.01 µM: 96%
[2]; Lut014 @ 1 μM
  remaining activity at 1 µM: 94%
PI3 Kinase (p120γ)(h); Lut014 @ 0.01 μM
  remaining activity at 0.01 µM: 96%
PI3 Kinase (p120γ)(h); Lut014 @ 1 μM
  remaining activity at 1 µM: 83%
PKA(h); Lut014 @ 0.01 μM
  remaining activity at 0.01 µM: 114%
PKA(h); Lut014 @ 1 μM
  remaining activity at 1 µM: 106%
PKBα(h); Lut014 @ 0.01 μM
  remaining activity at 0.01 µM: 102%
PKBα(h); Lut014 @ 1 μM
  remaining activity at 1 µM: 105%
PRAK(h); Lut014 @ 0.01 μM
  remaining activity at 0.01 µM: 101%
PRAK(h); Lut014 @ 1 μM
  remaining activity at 1 µM: 103%
ROCK-I(h); Lut014 @ 0.01 μM
  remaining activity at 0.01 µM: 107%
ROCK-I(h); Lut014 @ 1 μM
  remaining activity at 1 µM: 107%
SAPK2a(h); Lut014 @ 0.01 μM
  remaining activity at 0.01 µM: 97%
SAPK2a(h); Lut014 @ 1 μM
  remaining activity at 1 µM: 54%
TAK1(h); Lut014 @ 0.01 μM
  remaining activity at 0.01 µM: 91%
TAK1(h); Lut014 @ 1 μM
  remaining activity at 1 µM: 97%
eEF-2K(h); Lut014 @ 0.01 μM
  remaining activity at 0.01 µM: 95%
eEF-2K(h); Lut014 @ 1 μM
  remaining activity at 1 µM: 106%
mTOR(h); Lut014 @ 0.01 μM
  remaining activity at 0.01 µM: 100%
mTOR(h); Lut014 @ 1 μM
  remaining activity at 1 µM: 96%
p70S6K(h); Lut014 @ 0.01 μM
  remaining activity at 0.01 µM: 108%
p70S6K(h); Lut014 @ 1 μM
  remaining activity at 1 µM: 97%
